Data: patent publication US8257928B2, “Methods for predicting and treating tumors resistant to drug, immunotherapy and radiation” (The Regents of the University of California, priority 2008, dated 2012)

Experiments:
Type in all cases: cell-based, human
HMT3522 T4-2 cells [1] = experiment: Phenotypic reversion in three dimensional rBM cultures; conditions: tyrphostin AG 1478 100 nM
Source text: (§1) Non-neoplastic HMT3522 S1 breast epithelial cells or neoplastic HMT3522 T4-2 cells were embedded (8.5×10^5/ml) within reconstituted basement membrane (rBM) gel (Matrigcl, BD Biosciences) in chamber slides (Lab-Tek chamber slides, Nunc) according to the procedures described in U.S. Pat. No. 6,123,941 and Nat. Method. 4:359-365 (2007). The three dimensional cultures were maintained for 12 days before induction of cell death. Phenotypic reversion of HMT3522 T4-2 cells in three dimensional rBM cultures was performed using an epidermal growth factor receptor (EGFR) specific tyrosine kinase inhibitor tyrphostin AG 1478 (100 nM) (Calbiochem), as previously described (Proc. Natl. Acad. Sci. USA 95:14821-14826 (1998))

N-CoR2 = experiment: Immunoblot of N-CoR2 protein abundance in 2D, 3D and reverted cultures; conditions: T4-2 aggregates reverted into organized spheroids by EGFR inhibition, vs disorganized 3D aggregates
Experimental: For immunoblot analysis, cell colonies (S1 acini or T4-2 cellular aggregates) in 3D rBM were isolated using ice-cold PBS/EDTA. Total cell lysates from monolayered cells or isolated colonies were prepared in Laemmli lysing buffer containing protease inhibitors and immunoblot analysis was performed as described (Exp. Cell Res. 298:122-132 (2004)).

HMT3522 S1 cells [2] = experiment: Percent cell death of 3D rBM acini (active caspase 3; Live/Dead assay for IR); conditions: stable N-CoR2 downregulation vs control cells, range of drug concentrations or IR doses
Source text: The oligonucleotides specifying the small hairpin RNAs (shRNAs) were subcloned from pSilencer-H1 into pLZRS-MFG-CMV-Neo-U6, a recombinant self-inactivating retroviral vector constructed from the backbone of an MFG provirus (Proc. Natl. Acad. Sci. USA 85:6460-6464 (1988); Proc. Natl. Acad. Sci. USA 90:3539-3543 (1993)), which directs the expression of shRNA under the control of the U6 promoter. Amphotropic retrovirus was produced in Phoenix ampho cells (provided by Professor G. Nolan, Stanford Medical Center) with packaging vectors pCgp and pVSVG to boost viral titer. S1 cells or T4-2 cells, maintained in monolayer cultures, were then spin infected with retrovirus carrying the various RNAi constructs and infected cell populations were selected using 300 μg/ml G418 (Invitrogen). […]
Percent cell death induced by TRAIL or Paclitaxel was quantified using detection of active caspase 3 (Cell Signaling) by indirect immunofluorescence as described (J. Cell Biol. 163:1397-1407 (2003)). Percent cell death induced by IR was quantified using Live/Dead Viability/Cytotoxicity Assay (Molecular Probes). […] Percent death was calculated as cells positive for ethidium bromide or active caspase 3 expressed as a percentage of the total number of cells scored by the nuclear staining.

HMT3522 T4-2 cells [3] = experiment: Percent cell death in 2D monolayer, 3D rBM and reverted cultures (active caspase 3); conditions: stable N-CoR2 downregulation; TRAIL 1.0 μg/mL or Paclitaxel 20 μM
Source text: The oligonucleotides specifying the small hairpin RNAs (shRNAs) were subcloned from pSilencer-H1 into pLZRS-MFG-CMV-Neo-U6, a recombinant self-inactivating retroviral vector constructed from the backbone of an MFG provirus (Proc. Natl. Acad. Sci. USA 85:6460-6464 (1988); Proc. Natl. Acad. Sci. USA 90:3539-3543 (1993)), which directs the expression of shRNA under the control of the U6 promoter. Amphotropic retrovirus was produced in Phoenix ampho cells (provided by Professor G. Nolan, Stanford Medical Center) with packaging vectors pCgp and pVSVG to boost viral titer. S1 cells or T4-2 cells, maintained in monolayer cultures, were then spin infected with retrovirus carrying the various RNAi constructs and infected cell populations were selected using 300 μg/ml G418 (Invitrogen).
as §1, with “The three dimensional cultures were maintained for 12 days before induction of cell death.” left out
Apoptotic cell death of the breast epithelial cells cultured in three dimensional rBM was initiated by treatment with recombinant, purified human tumor necrosis factor-related apoptosis-inducing ligand (TRAIL) peptides (BIOMOL) or Paclitaxel (Sigma-Aldrich) as described (Cancer Cell 2:205-216 (2002)). DNA damage-induced cell death was initiated by ionizing radiation (IR) using a Mark I Cesium 137 irradiator (JL Shepherd & Associates).
Percent cell death induced by TRAIL or Paclitaxel was quantified using detection of active caspase 3 (Cell Signaling) by indirect immunofluorescence as described (J. Cell Biol. 163:1397-1407 (2003)). Percent cell death induced by IR was quantified using Live/Dead Viability/Cytotoxicity Assay (Molecular Probes). For both methods, cells were counterstained with 4′,6-diamidino-2-phenylindole (DAPI) to label cell nuclei present at different focal planes in the 3D architectures. Percent death was calculated as cells positive for ethidium bromide or active caspase 3 expressed as a percentage of the total number of cells scored by the nuclear staining.
Percent cell death induced by TRAIL was quantified using detection of active caspasc 3 as described in Example 4.

HMT3522 S1 cells [4] = experiment: Cell growth rates on culture plastics and 3D acinar morphogenesis in rBM; conditions: stable RNAi vs control shRNA
Experimental: For the comparison of cell growth rates, cells were seeded on culture plastics and the cell number was determined at indicated time points. Population doublings were calculated as In (cell number at day n/cell number at day 0)/ln 2. Data were shown as mean±SEM of triplicate experiments.
To illustrate the basal surfaces and the intercellular junctions of the polarized acinar structures, the cultures were directly fixed with 2% paraformaldehyde and then incubated with primary antibodies toward β4-integrin and β-catenin, followed by FITC-(green) or Texas red-(red) conjugated secondary antibodies, respectively. Phase contrast images or immunofluorescence images were taken using a scanning confocal laser (model 2000-MP, Bio-Rad Laboratories) attached to a fluorescence microscope (model Eclipse TE-300, Nikon).

Row | Compound | phenotypic reversion of cellular aggregates in 3D rBM (HMT3522 T4-2 cells [1]) | protein abundance of N-CoR2 (N-CoR2) | sensitivity of S1 acini to death stimuli (TRAIL, Paclitaxel, IR) (HMT3522 S1 cells [2]) | increased resistance of reverted spheroidal structures to death stimuli (TRAIL, Paclitaxel) (HMT3522 T4-2 cells [3]) | growth on culture plastics, integrity and polarization of acini in 3D rBM (HMT3522 S1 cells [4])
1 | COc1cc2ncnc(Nc3cccc(Cl)c3)c2cc1OC [tyrphostin AG 1478] | phenotypic reversion of the cellular aggregates into organized spheroid-like structures | further increase in the protein abundance of N-CoR2 | – | – | –
2 | N-CoR2 shRNA: retrovirally expressed small hairpin RNA, siRNA sequence 5′-AAGGGTATCATCACCGCTGTG-3′ (SEQ ID NO:1) for N-CoR2 | – | – | much more sensitive | completely reversed | does not significantly alter
